# “And” between values parts separate entries of the source, which are not always exact repeats. Equal entries are not always repeated. “Also recorded” adds a separate entry of the source.
# Legend:
# HRPC patients [1] = assay: Combination therapy by dose of estramustine phosphate, Example 3; format: in vivo, human
# PBMCs [2] = assay: Immunosuppression during combination therapy, Example 2; conditions: half dose (280 mg/day) with the peptide
# PBMCs [3] = assay: Monitoring of estramustine-induced immunosuppression (IFN-γ production of PBMCs to PHA, EBV-peptide and vaccinated peptides), Example 1
# HRPC patients [4] = conditions: phase III study; cited from earlier work
# [5] = system: peptide-specific CTL precursors in PBMCs; assay: Peptide-specific CTL precursor assay (IFN-γ production of peptide-stimulated PBMCs), Example 1; format: cell-based, human; conditions: PBMCs of the individual case;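 also: PBMCs cultured with each peptide at 10 µM, restimulated at 20 µM every 3 days up to 12 days, then 18 hr with peptide-pulsed target cells, IFN-γ by ELISA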
# Experimental: Before the first vaccination and 7 days after every 6th vaccination, 30 ml of peripheral blood was obtained, and PBMCs were isolated by means of Ficoll-Conray density gradient centrifugation. Peptide-specific CTL precursors in PBMCs were detected using a previously reported culture method [24]. Briefly, PBMCs (1×10^5 cells/well) were incubated with 10 μM of each peptide in U-bottom-type 96-well microculture plates (Nunc, Roskilde, Denmark) in 200 μl of culture medium. The culture medium contained 45% RPMI-1640 medium, 45% AIM-V™ medium (Invitrogen Corp., Carlsbad, Calif.), 10% FCS, 100 U/ml of interleukin-2 (IL-2) and 0.1 mM MEM nonessential amino acid solution (Invitrogen Corp.). Half of the medium was removed and replaced with the new medium containing a corresponding peptide (20 μM) every 3 days for up to 12 days. […] The target cells (C1R-A2402 or T2, 1×10^4/well) were pulsed with each peptide (10 μM) for 2 hr, and then effector cells (1×10^5/well) were added to each well with the final volume of 200 μl. After incubation for 18 hr, the supernatants (100 μl) were collected, and the amounts of IFN-γ were measured using an enzyme-linked immuno-sorbent assay (ELISA) (limit of sensitivity: 10 pg/ml). All experiments were performed in the four different wells with duplicate assays. […] Peptides were chosen based upon evaluation of all 4 wells by the order shown above.
# Peptide-specific CTL precursors in PBMCs were detected using a previously reported culture method [24], while an ELISA was used to detect the serum IgG levels specific for the peptides administrated, as reported previously [13-15]. […] Namely, PBMCs were harvested every 2 weeks and were cultured (10^4 cells/well) for 2 days in triplicate assays with 10 μl M of phytohemagglutinin (PHA), 10 ng/ml of Epstein-Bar virus (EBV)-derived peptide with HLA-A24 or -A2 binding motif, and 10 ng/ml of two different peptides under vaccination. After 2 days in culture, the amounts of IFN-γ in cell free supernatants were measured in triplicate assays, and viable cell numbers were also counted. To avoid biases in each assay, all the PBMCs were once cryopreserved and the four different PBMCs (two from healthy donors, one from patients PBMCs harvested 2 weeks before the latest vaccination, and one from the latest vaccination) were thawed at the same time in the morning of the experiment. The PBMCs from healthy donors were from the same donors throughout the series of immunological monitoring. Responses (IFN-γ production) to PHA, EBV-peptide, and the vaccinated peptides were considered to be mediated by resting T cells, memory T cells, and activated T cells, respectively.
# peptide-specific IgG [6] = assay: ELISA of serum IgG specific for the administered peptides, Example 1; format: in vivo, human; set-up: key: −: absent; +: present, low titer; ++: present, high titer; conditions: serum of the individual case
# [7] = system: peptide-specific CTL precursors in PBMCs; assay: Peptide-specific CTL precursor assay (IFN-γ production), Example 2; format: cell-based, human
# Experimental: Before the first vaccination and 7 days after every 6th vaccination, 30 ml of peripheral blood was obtained, and PBMCs were isolated by means of Ficoll-Conray density gradient centrifugation. Peptide-specific CTL precursors in PBMCs were detected using a previously reported culture method [24]. Briefly, PBMCs (1×10^5 cells/well) were incubated with 10 μM of each peptide in U-bottom-type 96-well microculture plates (Nunc, Roskilde, Denmark) in 200 μl of culture medium. The culture medium contained 45% RPMI-1640 medium, 45% AIM-V™ medium (Invitrogen Corp., Carlsbad, Calif.), 10% FCS, 100 U/ml of interleukin-2 (IL-2) and 0.1 mM MEM nonessential amino acid solution (Invitrogen Corp.). Half of the medium was removed and replaced with the new medium containing a corresponding peptide (20 μM) every 3 days for up to 12 days. […] The target cells (C1R-A2402 or T2, 1×10^4/well) were pulsed with each peptide (10 μM) for 2 hr, and then effector cells (1×10^5/well) were added to each well with the final volume of 200 μl. After incubation for 18 hr, the supernatants (100 μl) were collected, and the amounts of IFN-γ were measured using an enzyme-linked immuno-sorbent assay (ELISA) (limit of sensitivity: 10 pg/ml). All experiments were performed in the four different wells with duplicate assays.
# All patients were vaccinated with up to 4 peptides selected from the 16 candidates by pre-vaccination measurements.
# peptide-specific IgG [8] = assay: ELISA of serum anti-peptide IgG, Example 2; format: in vivo, human; set-up: key: −: absent; +: present, low titer; ++: present, high titer; conditions: serum of the individual patient
# Experimental: Peptide-specific CTL precursors in PBMCs were detected using a previously reported culture method, while an ELISA was used to detect the serum IgG levels specific for the peptides administrated, as reported previously. In addition, a new monitoring method was conducted to carefully measure the estramustine-induced immunosuppression. Namely, PBMCs were harvested every 2 weeks and were cultured (10^4 cells/well) for 2 days in triplicate assays with […] of phytohemagglutinin (PHA), 10 ng/ml of Epstein-Bar virus (EBV)-derived peptide with HLA-A24 or -A2 binding motif, and 10 ng/ml of two different peptides under vaccination. After 2 days in culture, the amounts of IFN-γ in cell free supernatants were measured in triplicate assays, and viable cell numbers were also counted. To avoid biases in each assay, all the PBMCs were once cryopreserved and the four different PBMCs (two from healthy donors, one from patients PBMCs harvested 2 weeks before the latest vaccination, and one from the latest vaccination) were thawed at the same time in the morning of the experiment. The PBMCs from healthy donors were from the same donors throughout the series of immunological monitoring. Responses (IFN-γ production) to PHA, EBV-peptide, and the vaccinated peptides were considered to be mediated by resting T cells, memory T cells, and activated T cells, respectively.
# Except for the following points, substantially the same approach was employed as Example 1.
# [9] = estramustine 140 mg/day combined with peptide vaccination, 4 cases
# [10] = estramustine 280 mg/day combined with peptide vaccination, 32 cases
# [11] = estramustine 560 mg/day combined with peptide vaccination, 5 cases
compound,measurement,setting,value
"C[C@]12CC[C@@H]3c4ccc(OC(=O)N(CCCl)CCCl)cc4CC[C@H]3[C@@H]1CC[C@@H]2OP(=O)(O)O [estramustine phosphate, Estramustine phosphate]","Clinical Response, number of PD",HRPC patients [1]; [9],3
same,"Clinical Response, number of SD",HRPC patients [1]; [9],1
same,"Response, Cellular Immunity",HRPC patients [1]; [9],3/4
same,"Response, Humoral Immunity",HRPC patients [1]; [9],4/4
same,"Clinical Response, number of PD",HRPC patients [1]; [10],12PD
same,"Clinical Response, number of PR",HRPC patients [1]; [10],"10PR,"
same,"Clinical Response, number of SD",HRPC patients [1]; [10],"10SD,"
same,"Response, Cellular Immunity",HRPC patients [1]; [10],23/31
same,"Response, Humoral Immunity",HRPC patients [1]; [10],27/32
same,"Clinical Response, number of PD",HRPC patients [1]; [11],5PD
same,"Response, Cellular Immunity",HRPC patients [1]; [11],0/3
same,"Response, Humoral Immunity",HRPC patients [1]; [11],1/2
same,Immunosuppression,PBMCs [2],no significant immunosuppression in most cases
same,Immune suppression,"PBMCs [3]; full dose (560 mg/day) with peptide vaccination, cases 2 and 3, recovered on discontinuing",severe immune suppression
same,Immune suppression,"PBMCs [3]; half/low dose (280 mg/day) with the peptide, 8 cases tested",no significant immune suppression
CC[C@]1(O)C[C@@H]2CN(CCc3c([nH]c4ccccc34)[C@@](C(=O)OC)(c3cc4c(cc3OC)N(C)[C@H]3[C@@](O)(C(=O)OC)[C@H](OC(C)=O)[C@]5(CC)C=CCN6CC[C@]43[C@@H]65)C2)C1 [vinblastine],"Rate of neutropenia, grade 2",HRPC patients [4],27%
same,"Rate of neutropenia, grade 3",HRPC patients [4],18%
same,"Rate of neutropenia, grade 4",HRPC patients [4],9%
VYDYNCHVDL [SART 3109-118],"Cellular response to peptide during the combination therapy, 6th",[5]; after 6th vaccination,ArA and ArArArA
same,"Cellular response to peptide during the combination therapy, 12th",[5]; after 12th vaccination,B (p ≦ 0.05 and 25 ≦ net < 50); also recorded: ArArArA
same,"Cellular response to peptide during the combination therapy, 18th",[5]; after 18th vaccination,ArArAA
same,"Cellular response to peptide during the combination therapy, Pre","[5]; before combination therapy, grade of each positive well of quadruplicate IFN-γ assay",ArAA and ArArArA
same,"Anti-peptide IgG during the combination therapy, 6th",peptide-specific IgG [6]; after 6th vaccination,++ and + and −
same,"Anti-peptide IgG during the combination therapy, 12th",peptide-specific IgG [6]; after 12th vaccination,++ and −
same,"Anti-peptide IgG during the combination therapy, 18th",peptide-specific IgG [6]; after 18th vaccination,++ and +
same,"Anti-peptide IgG during the combination therapy, Pre",peptide-specific IgG [6]; before combination therapy,+ and − (2×)
same,"Cellular response to peptide, 6th (mean specific IFN-γ production)","[7]; post(6th)-vaccination PBMCs of the individual patient, * p ≦ 0.05, ** p ≦ 0.10 increased versus pre",25 pg/ml and 27.3 pg/ml and 534** pg/ml and 170.8 pg/ml and 750** pg/ml and 610.8* pg/ml and 250 pg/ml and 496 pg/ml and 22.3 pg/ml and 0 pg/ml and 681.8 pg/ml
same,"Cellular response to peptide, Pre (mean specific IFN-γ production)","[7]; pre-vaccination PBMCs of the individual patient, response to HIV peptide subtracted",14.3 pg/ml and 26 pg/ml and 12.3 pg/ml and 5.3 pg/ml and 5.5 pg/ml and 0 pg/ml (2×) and 625 pg/ml and 35.8 pg/ml and 30.3 pg/ml and 25.3 pg/ml and 2.8 pg/ml
same,"Anti-peptide IgG, 6th",peptide-specific IgG [8]; after 6th vaccination,+ (8×) and ++ and −
same,"Anti-peptide IgG, Pre",peptide-specific IgG [8]; pre-vaccination,+ (11×) and −

# Reference: US7718614B2 (Kurume University, priority 2003, dated 2010)
